We go through 25 compounds from patent publication US20080090805A1, “CB-1 MODULATING COMPOUNDS AND THEIR USE” (ACADIA PHARMACEUTICALS INC., priority 2005, published 2008).

pIC50: −log10 of the molar value. Like-named read-outs stand apart in the source and are kept apart here.

The assay has as its target CB1 (mutant) (Homo sapiens, UniProt P21554). Kind of assay: R-SAT functional receptor assay, CB1 (mutant, truncated after amino acid 417). The assay is classed as cell-based. The conditions noted are these: R-SAT CB1; for IC50 / pIC50: receptor form (mutant or wild-type) not stated; for IC50: read-out: pIC50 (converted); for Emax: read-out: % Inhibition; for pIC50: pIC50, Appendix A.

Where [1] appears, read: Appendix A, receptor form not stated, relative to SR141716 (100%).

Sequence of CB1 (mutant) (P21554 1-417, change not shown): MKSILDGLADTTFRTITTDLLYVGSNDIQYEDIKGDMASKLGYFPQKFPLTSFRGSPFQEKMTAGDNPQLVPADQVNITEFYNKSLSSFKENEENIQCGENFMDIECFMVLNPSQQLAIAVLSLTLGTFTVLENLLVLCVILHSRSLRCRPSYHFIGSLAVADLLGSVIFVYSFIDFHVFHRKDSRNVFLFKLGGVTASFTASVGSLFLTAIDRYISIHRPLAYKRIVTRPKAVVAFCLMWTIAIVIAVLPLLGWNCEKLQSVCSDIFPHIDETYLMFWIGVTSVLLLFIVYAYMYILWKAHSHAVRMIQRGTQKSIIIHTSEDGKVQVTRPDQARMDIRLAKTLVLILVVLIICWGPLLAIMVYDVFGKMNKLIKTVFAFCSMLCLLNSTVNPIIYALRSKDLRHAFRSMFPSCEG

A word on the % Inhibition: it is the relative decrease from the control value, in per cent. With `CCOC(=O)N1CCC(NC(=O)c2ccc3c(c2)N=C(c2ccc(Cl)cc2)c2ccccc2S3)CC1` [drawing 676], the IC50 (Appendix A) was 63.1 nM. In addition, the “% Inhibition” value under setting [1] turned out to be 105%.
For `CCOC(=O)c1ccc(C2=Nc3cc(C(=O)NNC(=O)Cc4ccccc4)ccc3Sc3ccccc32)cc1`, the IC50 (Appendix A) was 3160 nM. In addition, under setting [1], the Emax was determined as 61%.
In the case of `COc1ccc(C2=Nc3cc(C(=O)NCC(C)C)ccc3Sc3ccccc32)cc1` [drawing 835], the IC50 (Appendix A) is 12.6 nM. For the same compound, the Emax under setting [1] came out at 118%.
For `O=C(c1ccc2c(c1)N=C(C1CCCCC1)c1ccccc1S2)N1CCCCC1`, the Emax under setting [1] came to 26%.
For the compound `C[C@@H]1CCC[C@H](C)N1NC(=O)c1ccc2c(c1)N=C(c1ccc(F)cc1)c1ccccc1S2` [drawing 943], the IC50 (Appendix A) is 20 nM. For the same compound, under setting [1], the Emax came out at 115%.
In the case of `O=C(NCc1ccccn1)c1ccc2c(c1)N=C(N1CCCCC1)c1ccccc1S2`, the IC50 (Appendix A) is 158 nM. The Emax under setting [1] was 78%.
In the same order, the values of `O=C(NN1CCCCC1)c1ccc2c(c1)N=C(c1ccc(Cl)c(Cl)c1)c1ccccc1S2` [drawing 989] are 25.1 nM and 105%.
`CCONC(=O)c1ccc2c(c1)N=C(c1ccc(Cl)c(Cl)c1)c1ccccc1S2` [drawing 806]: under setting [1], the Emax was 87%.
`Cc1csc(CNC(=O)c2ccc3c(c2)N=C(c2cccc(F)c2)c2ccccc2S3)c1` [drawing 557]: the IC50 (Appendix A) is 2.51 nM. Besides, under setting [1], the Emax is 96%.
As for `O=C(NCc1ccc(F)cc1)c1ccc2c(c1)N=C(c1ccc(F)cc1)c1ccccc1N2`, the Emax under setting [1] was found to be 61%.
As to `Cc1csc(CNC(=O)c2ccc3c(c2)N=C(c2sccc2C)c2ccccc2S3)c1` [drawing 661], the IC50 (Appendix A) was 6.31 nM. For the same compound, the Emax under setting [1] amounted to 102%.
The corresponding values for `O=C(NCc1ccccc1Br)c1ccc2c(c1)N=C(c1ccc(Cl)cc1)c1ccccc1S2` [drawing 608] are 50.1 nM and 94%.
In the same order, the values of `CCCCC(=O)c1ccc2c(c1)N=C(C1CCCCC1)c1ccccc1S2` are 50.1 nM and 37%.
In the same order, the values of `O=C(NCc1ccccn1)c1ccc2c(c1)N=C(c1ccc(F)cc1)c1ccccc1S2` are 63.1 nM and 90%.
In general, pIC50 refers to the negative decadic logarithm of the IC50, by convention in mol/L. Lower therefore signals a high IC50. Consider `CC(C)CCNC(=O)c1ccc2c(c1)N=C(c1ccc(F)cc1)c1ccccc1S2` [drawing 771], for which the pIC50 is 8.00. The Emax under setting [1] came out at 107%.
For `CCOCCNC(=O)c1ccc2c(c1)N=C(N1CCCCC1)c1ccccc1S2`, the IC50 (Appendix A) is 794 nM. Besides, the Emax under setting [1] turned out to be 103%.
Turning to `O=C(NNC(O)c1ccc2c(c1)N=C(c1cccc(Br)c1)c1ccccc1S2)c1ccccc1` (centres unmarked), the IC50 (Appendix A) is 100 nM. The Emax under setting [1] is 76%.
The corresponding values for `CCCCNC(=O)c1ccc2c(c1)N=C(c1ccccn1)c1ccccc1S2` [drawing 907] are 15.8 nM and 100%.
In the same order, the values of `CCCCN(C)C(=O)c1ccc2c(c1)N=C(c1ccc(Cl)cc1)c1ccccc1S2` are 63.1 nM and 92%.
The corresponding values for `CCCCNC(=O)c1ccc2c(c1)N=C(c1cccc(Cl)c1)c1ccccc1S2` [drawing 737] are 7.94 nM and 98%.
Compound `O=C(NC1CCCC1)c1ccc2c(c1)N=C(c1ccc(F)cc1)c1ccccc1S2` [drawing 720] had a pIC50 of 7.10. Under setting [1], the Emax was found to be 117%.
In the case of `O=C(NCCc1ccccn1)c1ccc2c(c1)N=C(c1ccc(Cl)cc1F)c1ccccc1S2` [drawing 562], for the setting “Appendix A”, the IC50 is 50.1 nM. Besides, the Emax under setting [1] was 96%.
In the same order, the values of `O=C(NN1CCCCCC1)c1ccc2c(c1)N=C(c1ccc(Cl)cc1Cl)c1ccccc1S2` [drawing 876] are 200 nM and 82%.
In the same order, the values of `CCCCNC(=O)c1ccc2c(c1)N=C(c1ccccc1F)c1ccccc1S2` [drawing 1129] are 39.8 nM and 96%.
In the same order, the values of `O=C(NN1CCOCC1)c1ccc2c(c1)N=C(c1cccc(F)c1)c1ccccc1S2` are 200 nM and 63%.
